Measurements published in publication PMC8589421, “Impact of Type II LRRK2 inhibitors on signaling and mitophagy” (Biochemical Journal, 2021).

Columns and labels:
[1] = tested on: LRRK2 Ser935, Ser910, Ser955 and Ser973; experiment: LRRK2 biomarker site phosphorylation in primary human neutrophils; assay type: cell-based; details: up to 3 μM
Procedure: Cell extracts were mixed with a quarter of a volume of NuPage LDS Sample buffer 4× Invitrogen and heated at 95°C for 5 min. […] At the end of electrophoresis, proteins were electrophoretically transferred onto the nitrocellulose membrane (GE Healthcare, Amersham Protran Supported 0.45 µm NC) at 100 V for 90 min on ice in the transfer buffer (48 mM Tris–HCl and 39 mM glycine supplemented with 20% methanol). Transferred membrane was blocked with 5% (w/v) skim milk powder dissolved in TBS-T [20 mM Tris–HCl, pH 7.5, 150 mM NaCl and 0.1% (v/v) Tween 20] at room temperature for 1 h. The membrane was typically cropped into three pieces, namely the ‘top piece’ (from the top of the membrane to 75 kDa), the ‘middle piece’ (between 75 and 30 kDa) and the ‘bottom piece’ (from 30 kDa to the bottom of the membrane). All primary antibodies were used at 1 μg/ml final concentration and incubated in TBS-T containing 5% (by mass) bovine serum albumin with exception of α-tubulin and GAPDH antibodies that were diluted 1 : 5000 and 1 : 2000, respectively. The top piece was incubated with the indicated rabbit anti-LRRK2 phosphorylation site antibody multiplexed with mouse anti-LRRK2 C-terminus total antibody. […] Protein bands were acquired via near infrared fluorescent detection using the Odyssey CLx imaging system and quantified using the Image Studio software. […]

[2] = tested on: LRRK2 at Ser935; experiment: LRRK2 Ser935 phospho-immunoblot in wild-type MEFs; assay type: cell-based, mouse
Procedure: Wild-type and homozygous LRRK2 [R1441C] […] All cells were grown at 37°C, 5% (by vol) CO2 in a humidified atmosphere and regularly tested for mycoplasma contamination.
Inhibitors were dissolved in dimethyl sulfoxide (DMSO) (Sigma, #D2650). The inhibitors were diluted 1000× into cell medium. The equivalent volume of DMSO was added to the minus inhibitor controls. Experiments were performed in six-well plates, 10 cm dishes or 15 cm dishes depending on the amount of cell extract required.
Lysates were incubated on ice for 30 min and clarified by centrifugation at 20 800×g at 4°C for 20 min. Supernatants were quantified by Bradford assay (Bio-Rad Protein Assay Dye Reagent Concentrate #5000006) and samples prepared in 1× lithium dodecyl sulfate sample buffer final concentration (NuPage LDS Sample buffer 4× Invitrogen, #NP0008). When not deployed immediately, lysates were snap-frozen in liquid nitrogen and stored at −80°C until use.
Cell extracts were mixed with a quarter of a volume of NuPage LDS Sample buffer 4× Invitrogen and heated at 95°C for 5 min. […] At the end of electrophoresis, proteins were electrophoretically transferred onto the nitrocellulose membrane (GE Healthcare, Amersham Protran Supported 0.45 µm NC) at 100 V for 90 min on ice in the transfer buffer (48 mM Tris–HCl and 39 mM glycine supplemented with 20% methanol). Transferred membrane was blocked with 5% (w/v) skim milk powder dissolved in TBS-T [20 mM Tris–HCl, pH 7.5, 150 mM NaCl and 0.1% (v/v) Tween 20] at room temperature for 1 h. The membrane was typically cropped into three pieces, namely the ‘top piece’ (from the top of the membrane to 75 kDa), the ‘middle piece’ (between 75 and 30 kDa) and the ‘bottom piece’ (from 30 kDa to the bottom of the membrane). All primary antibodies were used at 1 μg/ml final concentration and incubated in TBS-T containing 5% (by mass) bovine serum albumin with exception of α-tubulin and GAPDH antibodies that were diluted 1 : 5000 and 1 : 2000, respectively. The top piece was incubated with the indicated rabbit anti-LRRK2 phosphorylation site antibody multiplexed with mouse anti-LRRK2 C-terminus total antibody. The middle piece was incubated with mouse anti-GAPDH or anti-α-tubulin antibody. The bottom pieces were incubated with indicated total and phospho-Rab antibodies. Membranes were incubated in primary antibody overnight at 4°C. Prior to secondary antibody incubation, membranes were washed three times with TBS-T for 10 min each. […] Membranes were washed with TBS-T for three times with a 10 min incubation for each wash. Protein bands were acquired via near infrared fluorescent detection using the Odyssey CLx imaging system and quantified using the Image Studio software.

## Cc1ccc(C(=O)Nc2ccc(CN3CCN(C)CC3)c(C(F)(F)F)c2)cc1C#Cc1cnc2[nH]ncc2c1 [GZD-824]
[1]
  phosphorylation of Ser935, Ser910, Ser955 and Ser973: unaffected
[2]; MEFs, 2 h dose response
  effect on LRRK2 Ser935 phosphorylation: did not induce dephosphorylation
[2]; wild-type MEFs, 1 μM, 24 h
  Ser935 phosphorylation over 24 h time course: unaffected
[2]; wild-type MEFs, 10 μM, 2 h, Supplemental Figure S2A
  effect on LRRK2 Ser935 phosphorylation: did not reduce LRRK2 phosphorylation at Ser935 significantly
